Here are results for 2 compounds from patent EP0856511B1, “Calcium salt of indomethacin pentahydrate and its preparation” (Promindus (Actions Promotionnelles dans l'Industrie et le …, priority 1997, dated 1998).

The nature of data set [1]: Lethal dose 50 % (DL50) per os in the rat. The format is in vivo. From the text: (§1) En effet, les comparaisons respectives des DE50 (dose efficace 50 %) et DL50 (dose léthale 50 %) per os, chez le rat, de ladite indométacine calcique pentahydratée et de ladite indométacine libre sont nettement à l'avantage de ladite indométacine calcique.
A short description of data set [2]: Effective dose 50 % (DE50) per os in the rat. The data set is classed as in vivo.
Source text: as §1

Data set [3] in a line: Solubility description in water and organic solvents. The format is physicochemical.
For data set [4] the following is noted: in vivo.

With `COc1ccc2c(c1)c(CC(=O)O)c(C)n2C(=O)c1ccc(Cl)cc1` [Indométacine, acide 1-(p-chlorobenzoyl)-5-méthoxy-2-méthylindole-3-acétique, reference compound], the LD50 in data set [1] (in vivo, po, dose léthale 50 %, per os, rat) was determined as 28 mg/kg. The same compound registered an ED50 in data set [2] (po, dose efficace 50 %, per os, rat) of 3 mg/kg.

In data set [1] (dose léthale 50 %, per os, rat), indométacine calcique pentahydratée yielded a DL50 of 45 mg/kg. In addition, in data set [1] (par voie orale, compared with the acid form), the “toxicité par voie orale” value is “une toxicité diminuée”. For the same compound, in data set [1] (per os, rat, ratio DL50/DE50), the “Index thérapeutique : DL50/DE50” value is reported as 18. For the same compound, in data set [2] (compared with the acid form), the activité pharmacologique result is “équivalente”. In data set [2] (dose efficace 50 %, per os, rat), the DE50 is on record as 2,5 mg/kg. Besides, in data set [3], the “solubilité dans l'acétonitrile” value is on record as “pratiquement insoluble”, the “solubilité dans l'eau” value is “pratiquement insoluble” and the “solubilité dans l'éther” value is on record as “pratiquement insoluble”. In addition, in data set [3] (chloroforme), the “solubilité dans le chloroforme” value is reported as “pratiquement insoluble”. The “solubilité dans le diméthylformamide” value in data set [3] (diméthylformamide) is reported as “facilement soluble”. Also, the “solubilité dans le tétrahydrofuranne” value in data set [3] (tétrahydrofuranne) is given as “soluble”. For the same compound, in data set [4], the “tolérance locale par voie rectale” value is listed as “une meilleure tolérance locale”.

What is called LD50 is the dose at which mortality reaches 50%. A lower LD50 goes with a more toxic substance. As usually defined, the ED50 is the midpoint of the dose-response relation.
